Test results taken from patent US11890315B2, “Stable ascorbic acid compositions and methods of using same” (RENOVION, INC., priority 2017, dated 2024).

Tests used:
[1] = Stability: oxidized glutathione and reduced ascorbic acid after 4 weeks of storage at 5° C.; format: physicochemical; conditions: reduced ascorbic acid maintained after 4 weeks at 5° C.; pH and atmosphere per formulation
Description: Oxidized glutathione is associated with the generation of protein-carbonyls via glutathionlyation, which occurs when oxidized glutathione dissociates and attaches to proteins. […] Additionally, when ascorbic acid is oxidized into dehydroascorbate (DHA), DHA can break down and result in the formation of protein adducts in process called ascorbylation (Simpson et al., Biochim biophys Acta 2000; 1501:12-24). […] Specifically, nitrogen-sparged samples were mixed under anaerobic conditions sparged with nitrogen, and the samples were packaged using nitrogen bubbling. Ambient samples were mixed under room air conditions and were not bubbled with nitrogen. The formulations were stored at 5° C. for 4 weeks, and the percent of oxidized glutathione (GSSG) and ascorbic acid (ASC) was measured for each sample according to standard techniques.

[2] = Storage stability about 72 hours at 2-8° C.; format: physicochemical; conditions: −20° C., 5° C., ambient; data not shown
Procedure: The effects of storage on ascorbic acid compositions including varying amounts of buffer with a consistent glutathione concentration were tested. […] At testing, Formulations 1-9 were evaluated to determine ascorbic acid and reduced and oxidized glutathione concentrations. A standard RP-HPLC method for these analytes was used. The method was validated including specificity, accuracy, repeatability, LOQ, mini linearity, in-vial NPLC sample stability and stability-indicating check with informal forced degradation samples. The pH of each formulation was determined using a pH probe place in a sample of each solution. Results are shown in FIG. 15. ascorbic (ACS) alone was unstable under the conditions tested (−20° C., 5° C., ambient) (data not shown).

Pa BAA-47 (PAO1) = assay: In vitro MIC against bacterial isolates; format: cell-based, Pseudomonas aeruginosa; conditions: Anaerobic (+nitrate); 12 hrs
Procedure: (§1) The MIC for laboratory clinical isolate Pseudomonas aeruginosa (Schroeter) Migula (ATCC BAA-47 (PAO1)) was also tested. The MICs were determined under anaerobic conditions on media supplemented with nitrate, under aerobic conditions supplemented with nitrate, or under ambient conditions.
(§2) The clinical isolates were inoculated in duplicate on agar plates overnight under anaerobic conditions at 36° C.±1.0° C. in a 96-well plate. Laboratory isolates of Burkholderia cepacia were also grown in duplicate overnight under aerobic conditions at 36° C.±1.0° C. in a 96-well plate. […] Ten dilutions for each test solution were examined: 50%, 25%, 12.5%, 6.25%, 3.13%, 1.57%, 0.78%, 0.39%, 0.2%, and 0.1%. The colony isolates were incubated for 12 hours or 24 hours at 36° C.±1.0° C. under anaerobic conditions in media comprising Luria Agar/Broth and nitrate with one of the three test solutions. […] MICs were determined via visual inspection and OD620.

Pa UAB-M-2 = assay: In vitro MIC against bacterial isolates; format: cell-based, Pseudomonas aeruginosa; conditions: Anaerobic (+nitrate); 12 hrs
Procedure: as §1, §2

Pa UAB-NM-1 = assay: In vitro MIC against bacterial isolates; format: cell-based, Pseudomonas aeruginosa; conditions: Anaerobic (+nitrate); 12 hrs
Procedure: as §1, §2

Pa UAB-NM-3 = assay: In vitro MIC against bacterial isolates; format: cell-based, Pseudomonas aeruginosa; conditions: Anaerobic (+nitrate); 12 hrs
Procedure: as §1, §2

Pa UAB-NM-5 = assay: In vitro MIC against bacterial isolates; format: cell-based, Pseudomonas aeruginosa; conditions: Anaerobic (+nitrate); 12 hrs
Procedure: as §1, §2

MRSA UAB-1 = assay: In vitro MIC against bacterial isolates; format: cell-based, Methicillin-resistant Staphylococcus aureus; conditions: Anaerobic (+nitrate); 12 hrs
Procedure: as §1, §2

MRSA UAB-3 = assay: In vitro MIC against bacterial isolates; format: cell-based, Methicillin-resistant Staphylococcus aureus; conditions: Anaerobic (+nitrate); 12 hrs
Procedure: as §1, §2

[3] = system: dF508−/− primary human bronchial epithelial cells; assay: Mucociliary transport rate, ASL and CBF by micro-optical coherence tomography (uOCT); format: cell-based; conditions: isolated components vs PBS control; FIG. 2
Description: Briefly, primary human bronchial epithelial cells were isolated from the airways of patients with cystic fibrosis and were terminally differentiated. All cells isolated from cystic fibrosis patients were represented by the dF508−/− genotype. […] Micro-optical coherence tomography (uOCT) was used to assess the mucociliary transport rate according to methods described in Liu, L., et al., PLoS One.
As described above in Example 2, primary human bronchial epithelial cells were isolated from the airways of patients with cystic fibrosis, and uOCT was used to assess the mucociliary transport rate according to methods described in Liu, L., et al., PLoS One.
MCT rate was assessed in a mucociliary clearance assay according to the methods in Example 3 above.

| Structure (SMILES) | % ASC [1] | stability [2] | MIC (Pa BAA-47 (PAO1)) | MIC (Pa UAB-M-2) | MIC (Pa UAB-NM-1) | MIC (Pa UAB-NM-3) | MIC (Pa UAB-NM-5) | MIC (MRSA UAB-1) | MIC (MRSA UAB-3) | mucociliary transport rate [3] |
| --- | --- | --- | --- | --- | --- | --- | --- | --- | --- | --- |
| O=C1O[C@H]([C@@H](O)CO)C(O)=C1O [Ascorbic Acid Only, ascorbic acid] | 77.88% | unstable |  |  |  |  |  |  |  |  |
| O=C([O-])O.[Na+] [HCO3, sodium bicarbonate] |  |  | 12.5% | 12.5% | 12.5% | 12.5% | 12.5% | 25% | 25% | did not alter the mucociliary transport rate |
| N[C@@H](CCC(=O)N[C@@H](CS)C(=O)NCC(=O)O)C(=O)O [glutathione, Glutathione] |  |  |  |  |  |  |  |  |  | did not alter the mucociliary transport rate |
